For series [1] the following is noted: human, hepatocytes.
For series [2] the following is noted: mouse, hepatocytes.
A short description of series [3]: BBB-PAMPA Permeability. Format: in vitro ADME. In general terms: In PAMPA a lipid-coated filter parts donor from acceptor wells.
Series [4] can be described thus: Hepatocyte Stability (human). To be noted: hepatocytes.
Series [5] is described as follows: Microsomal Intrinsic Clearance (mouse). To be noted: liver microsomes; for microsomal CLint: Mouse microsomes. For orientation: Microsomes from liver hold many membrane-bound enzymes, among them those of drug oxidation.
Series [6] in a line: Hepatocyte Stability (mouse). To be noted: hepatocytes.
Series [7] can be described thus: Microsomal Intrinsic Clearance (human). To be noted: liver microsomes; for microsomal CLint: Human microsomes.
Series [8] is described as follows: Plasma Stability (human). The format is in vitro ADME.
Series [9] can be described thus: Plasma Stability (mouse). The format is in vitro ADME.
The target of series [10] is T1, TrkB (Rattus norvegicus, UniProt Q63604).
T1 construct: expressed in transfected cells
T1 sequence (Q63604 32-821): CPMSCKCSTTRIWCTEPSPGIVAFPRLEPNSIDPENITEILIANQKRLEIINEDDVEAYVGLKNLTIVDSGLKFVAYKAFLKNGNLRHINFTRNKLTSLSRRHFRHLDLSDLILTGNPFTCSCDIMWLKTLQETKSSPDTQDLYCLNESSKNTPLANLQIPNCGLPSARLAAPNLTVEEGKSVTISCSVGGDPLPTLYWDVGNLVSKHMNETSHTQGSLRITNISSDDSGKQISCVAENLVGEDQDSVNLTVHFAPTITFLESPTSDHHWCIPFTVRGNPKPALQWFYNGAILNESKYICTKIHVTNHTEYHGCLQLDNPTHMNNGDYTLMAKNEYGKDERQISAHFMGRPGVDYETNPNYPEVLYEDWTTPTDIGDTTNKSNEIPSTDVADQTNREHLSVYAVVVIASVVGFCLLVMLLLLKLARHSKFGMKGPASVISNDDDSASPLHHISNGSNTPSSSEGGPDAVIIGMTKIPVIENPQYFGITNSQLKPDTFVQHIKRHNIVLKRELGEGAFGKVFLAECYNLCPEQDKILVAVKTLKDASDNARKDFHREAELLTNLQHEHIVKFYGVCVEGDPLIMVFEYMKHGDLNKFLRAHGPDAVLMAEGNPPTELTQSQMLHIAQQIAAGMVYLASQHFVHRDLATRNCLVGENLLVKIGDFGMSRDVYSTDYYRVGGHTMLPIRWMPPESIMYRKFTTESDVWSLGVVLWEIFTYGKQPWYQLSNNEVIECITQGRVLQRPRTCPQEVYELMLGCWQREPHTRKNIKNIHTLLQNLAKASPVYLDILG
Put plainly: TrkB activation in rat TrkB stably transfected SN56 cells (T48), immunoblotting. The format is cell-based. Conditions: different doses, 15 min. (Immunoblotting shows a protein as a band on a membrane.)

The subject of series [11] is TrkB. Put plainly: Endogenous TrkB activation in DIV13 primary cortical cultures, immunoblotting. The format is cell-based. Conditions: 15 min. The procedure: Endogenous TrkB activation in primary neurons were tested in DIV13 primary cortical cultures. The neurons were treated with the two compounds with doses for 15 min. The lysates were analyzed by immunoblotting with antibodies.

The subject of series [12] is T48 cells. Put plainly: Protection from staurosporine (STS)-induced apoptosis, MTT assay, T48 cells. The format is cell-based. Here is the method:
Cytoprotective effects were tested. To examine whether these compounds protect cells from staurosporine (STS)-induced apoptosis, MTT assays were conducted using TrkB stable transfected cells or TrkB deficient SN56 cells.

Where [13] appears, read: NADPH-dependent CLint, with NADPH.
Setting [14] is: NADPH-dependent T1/2, Mouse microsomes, with NADPH.
Setting [15] is: NADPH-free T1/2, Mouse microsomes, NADPH-free.
The mark [16] stands for this setting: NADPH-dependent T1/2, Human microsomes, with NADPH.
[17] abbreviates: NADPH-free T1/2, Human microsomes, NADPH-free.

Read-outs that look alike come from different tables or passages of the source. Where only a bound is given, the exact number is not on record here.

Turning to `O=c1ccc2ccc(O)cc2o1` [7-OH-Coumarin], in series [1], the “Avg % Remaining at Last Point” value was found to be 7.17%, the Clearance came to 88.5 μl/min/million cells and the “Half Life” value is given as 15.7 min. In addition, in series [2], the “Avg % Remaining at Last Point” value is recorded as 38.8%, the Clearance was determined as 63.2 μl/min/million cells and the “Half Life” value stood at 21.9 min.

Consider `CC(C)NCC(O)COc1ccc(CC(N)=O)cc1` (stereo not drawn) [Atenolol, reference compound], for which the recovery at 10 μM in series [3] (Test Conc. 10 μM) worked out at 84.6%.

For the compound `Cc1ncc2n1-c1ccc(Cl)cc1C(c1ccccc1F)=NC2` [Midazolam, reference compound], the “Avg % Remaining at Last Point” value was 9.82% in [4] and 34.0% in [6]. For the same compound, the half-life (in general, the time in which the quantity being followed falls by half) in [4] is 35.7 min; in series [5] (setting [14]) it was 2.1 min; in [5] (setting [15]) it was over 180 min; in series [6], 39.4 min; in series [7] (setting [16]), 4.52 min; in [7] (setting [17]), over 180 min. In addition, the hepatocyte CLint (as a rule, a measure of how fast metabolising enzymes remove a compound, apart from limits set by blood flow) worked out at 38.8 µL/min/1e6 cells in series [4] and 35.1 µL/min/1e6 cells in [6]. Also, the microsomal CLint (in general, the rate of metabolic loss divided by the concentration) in series [5] (setting [13]) was 1100 µL/min/mg; in series [5] (NADPH-free CLint, NADPH-free) it was under 12.8 µL/min/mg; in series [7] (setting [13]), 511 µL/min/mg; in series [7] (NADPH-free CLint, NADPH-free) it was under 12.8 µL/min/mg.

As for `CC(C)[N+](C)(CCOC(=O)C1c2ccccc2Oc2ccccc21)C(C)C` [Propantheline, reference compound], in series [8], the “Avg % Remaining at Last Point” value is listed as 3.15% and the half-life was 23.9 min. Moreover, the half-life in [9] is 22.2 min.

Consider `Cn1c(=O)[nH]c2ccc3c(=O)cc(-c4ccc(C#N)cc4)oc3c21` [RM-CN, 4-(1-methyl-2,6-dioxo-1,2,3,6-tetrahydrochromeno[7,8-d]imidazol-8-yl)benzonitrile], for which the “Avg % Remaining at Last Point” value in series [4] amounted to 54.8%; in series [8], 91.1%; in series [6], 67.1%; in [9] it was 80.3%. Also, the half-life was 133 min in [4]; over 480 min in series [8]; 10 min in series [5] (setting [14]); over 180 min in [5] (setting [15]); 275 min in series [6]; 345 min in series [9]. The half-life in series [7] (setting [16]) was 76.2 min; in [7] (setting [17]), over 180 min. For the same compound, the hepatocyte CLint worked out at 10.5 µL/min/1e6 cells in [4] and 5.04 µL/min/1e6 cells in series [6]. For the same compound, the “effects on p-TrkB 816” value in series [10] is “behaved inversely”. Moreover, the p-Akt/p-MAPK downstream signals result in [10] is on record as “increased in a dose-dependent manner”. The “p-TrkB 706 activation” value in [10] is reported as “activated p-TrkB 706 gradually”. Moreover, the intrinsic metabolic clearance (microsomal CLint) is 231 µL/min/mg in [5] (setting [13]); under 12.8 µL/min/mg in series [5] (NADPH-free CLint, NADPH-free); 30.3 µL/min/mg in series [7] (setting [13]); under 12.8 µL/min/mg in series [7] (NADPH-free CLint, NADPH-free). Further, the “TrkB activation in primary neurons” value in series [11] is “dose-dependent effect in triggering TrkB activation”. Moreover, in series [3] (Test Conc. 1 μM), the Pe was 2.82. Further, the recovery at 1 μM in series [3] (Test Conc. 1 μM) turned out to be 71%. Moreover, the EC50 (in general, the concentration giving half of the maximal effect) in series [12] was determined as 12.5 nM.

Take `CC(=O)CC(c1ccccc1)c1c(O)c2ccccc2oc1=O` (stereo not drawn) [Warfarin, reference compound]: the “Avg % Remaining at Last Point” value was 93.6% in series [8] and 80.8% in series [9].

For the origin of these results see patent US11987589B2, “Heterocyclic flavone derivatives, compositions, and methods related thereto” (Emory University, priority 2018, dated 2024).
